Assay results: patent publication US8354419B2, “Benzimidazole analogues for the treatment or prevention of flavivirus infections” (Vertex Pharmaceuticals Incorporated, priority 2009, dated 2013)
pEC50: −log10 of the molar value.

Test system: HCV (Ib) RNA replication
Assay: Cell-based luciferase reporter HCV (1b) RNA replication assay (replicon cell lines Huh-7 5.2 and ET)
Design: species or system Hepatitis C virus
Conditions: Hepatitis C virus, Huh-7, 96 h, HCV 1b genotype replicon, luciferase readout, 4 days incubation; read-out: EC50_1b
Outline: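 Compounds were tested at eleven concentrations in duplicate over 4 days at 37 °C, 5% CO2. The cells were luciferase-reporter HCV 1b replicon lines 5.2 (NS5A adaptive mutation) or ET (NS4B mutation). Luminescence of lysates was measured, and IC50s were derived by nonlinear curve fitting.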

SMILES | pEC50
O=C(NC1CC1)c1nc2cc(C#Cc3ccc4[nH]c([C@@H]5CCCN5C(=O)OCc5ccccc5)nc4c3)ccc2[nH]1 [Compound 51] | 5.30 to 8.30
COC(=O)N[C@@H](C)C(=O)N1CCC[C@H]1c1nc2cc(C#Cc3ccc4[nH]c([C@@H]5CCCCN5C(=O)OCc5ccccc5)nc4c3)ccc2[nH]1 [Compound 52] | ≥ 8.30
COC(=O)N[C@@H](C)C(=O)N1CCC[C@H]1c1nc2cc(C#Cc3ccc4[nH]c([C@@H]5CCCN5C(=O)[C@@H](NC(=O)OC)C(C)C)nc4c3)ccc2[nH]1 [Compound 53] | ≥ 8.30
COC(=O)N[C@@H](C)C(=O)N1CCC[C@H]1c1nc2cc(C#Cc3ccc4[nH]c([C@@H]5CCCN5C(=O)[C@@H](NC(=O)OC)C(C)(C)C)nc4c3)ccc2[nH]1 [Compound 54] | ≥ 8.30
COC(=O)N[C@@H](C)C(=O)N1CCC[C@H]1c1nc2cc(C#Cc3ccc4[nH]c([C@@H]5CCCN5C(=O)[C@H](NC(=O)OC)c5ccccc5)nc4c3)ccc2[nH]1 [Compound 55] | ≥ 8.30
COC(=O)N[C@@H](C)C(=O)N1CCC[C@H]1c1nc2cc(C#Cc3ccc4[nH]c([C@@H]5CCCN5C(=O)[C@H]5CCCO5)nc4c3)ccc2[nH]1 [Compound 56] | ≥ 8.30
COC(=O)N[C@@H](C)C(=O)N1CCC[C@H]1c1nc2cc(C#Cc3ccc4[nH]c([C@@H]5CCCN5)nc4c3)ccc2[nH]1 [Compound 57] | 5.30 to 8.30
COC(=O)N[C@H](C(=O)N1CCCC[C@H]1c1nc2cc(C#Cc3ccc4[nH]c([C@@H]5CCCCN5C(=O)[C@@H](NC(=O)OC)C(C)C)nc4c3)ccc2[nH]1)C(C)C [Compound 58] | ≥ 8.30
COC(=O)N[C@@H](C)C(=O)N1CCC[C@H]1c1nc2cc(C#Cc3ccc4c(c3)N=C([C@@H]3CCCN3C(=O)C(c3ccccc3)N(C)C)C4)ccc2[nH]1 (some centres unmarked) [Compound 59] | ≥ 8.30
COC(=O)N[C@H](C(=O)N1CCCC[C@H]1c1nc2cc(C#Cc3ccc4[nH]c([C@@H]5CCCN5C(=O)[C@@H](NC(=O)OC)C(C)C)nc4c3)ccc2[nH]1)C(C)C [Compound 60] | ≥ 8.30
O=C(N1CCC[C@H]1c1nc2cc(C#Cc3ccc4[nH]c([C@@H]5CCCN5C(=O)C5(c6ccccc6)CC5)nc4c3)ccc2[nH]1)C1(c2ccccc2)CC1 [Compound 61] | ≥ 8.30
COC(=O)N[C@H](C(=O)N1CCC[C@H]1c1nc2cc(C#Cc3ccc4[nH]c([C@@H]5CCCN5C(=O)[C@H](NC(=O)OC)C(C)C)nc4c3)ccc2[nH]1)C(C)C [Compound 62] | ≥ 8.30
COC(=O)N(C)[C@H](C(=O)N1CCC[C@H]1c1nc2cc(C#Cc3ccc4nc([C@@H]5CCCN5C(=O)[C@H](C(C)C)N(C)C(=O)OC)[nH]c4c3)ccc2[nH]1)C(C)C [Compound 63] | ≥ 8.30
COC(=O)N[C@H](C(=O)N1CCC[C@H]1c1nc2ccc(CCc3ccc4nc([C@@H]5CCCN5C(=O)[C@@H](NC(=O)OC)C(C)C)[nH]c4c3)cc2[nH]1)C(C)C [Compound 64] | ≥ 8.30
CC(C)[C@H](NS(C)(=O)=O)C(=O)N1CCC[C@H]1c1nc2cc(C#Cc3ccc4nc([C@@H]5CCCN5C(=O)[C@@H](NS(C)(=O)=O)C(C)C)[nH]c4c3)ccc2[nH]1 [Compound 65] | 5.30 to 8.30
CN1CCC[C@H]1C(=O)N1CCCC1c1nc2ccc(C#Cc3ccc4[nH]c([C@@H]5CCCN5C(=O)[C@@H]5CCCN5C)nc4c3)cc2[nH]1 (some centres unmarked) [Compound 66] | 5.30 to 8.30
O=C1CCC(C(=O)N2CCC[C@H]2c2nc3cc(C#Cc4ccc5nc([C@@H]6CCCN6C(=O)[C@@H]6CCC(=O)N6)[nH]c5c4)ccc3[nH]2)N1 (some centres unmarked) [Compound 67] | 5.30 to 8.30
COC(=O)NC(C(=O)N1CCC[C@H]1c1nc2ccc(CCCCc3ccc4[nH]c([C@@H]5CCCN5C(=O)[C@@H](NC(=O)OC)C(C)C)nc4c3)cc2[nH]1)C(C)C (some centres unmarked) [Compound 68] | ≥ 8.30
CC(C)(C)OC(=O)N1CCC[C@H]1c1nc2cc(C#CC#Cc3ccc4[nH]c([C@@H]5CCCN5C(=O)OC(C)(C)C)nc4c3)ccc2[nH]1 [Compound 69] | 5.30 to 8.30
CC(C)[C@H](NC(=O)NC1CCCC1)C(=O)N1CCCC1c1nc2cc(C#Cc3ccc4[nH]c([C@H]5CCCN5C(=O)[C@@H](NC(=O)NC5CCCC5)C(C)C)nc4c3)ccc2[nH]1 (some centres unmarked) [Compound 70] | 5.30 to 8.30
